In ChEMBL document CHEMBL1136945, “Antimalarial activity of thiosemicarbazones and purine derived nitriles” (Bioorg Med Chem Lett, 2009):

Legend:
Assay type in all cases: functional, organism-based
[1] = test system: Plasmodium falciparum; assay: (§1) Antimalarial activity as reduced parasitaemia after 72 hrs against chloroquine-resistant Plasmodium falciparum K1 infected human O+ erythrocytes by DNA stain without pepstatin; conditions: K1, 72 h
[2] = test system: Plasmodium falciparum; assay: as §1; conditions: K1, 72 h; remark: listed apart in the source
[3] = test system: Plasmodium falciparum; assay: Antimalarial activity as reduced parasitaemia after 72 hrs against chloroquine-sensitive Plasmodium falciparum 3D7 infected human O+ erythrocytes by DNA stain without pepstatin; conditions: 3D7, 72 h
[4] = test system: Plasmodium falciparum; assay: Antimalarial activity as reduced parasitaemia after 72 hrs against chloroquine-sensitive Plasmodium falciparum 3D7 infected human O+ erythrocytes by DNA stain with pepstatin; conditions: 3D7, 72 h

SMILES	EC50 [1] [µM]	EC50 [2] [µM]	EC50 [3] [µM]	EC50 [4] [µM]
CCCC/C(=N\NC(N)=S)c1ccc(Cl)c(Cl)c1	> 30	> 30	> 30	> 30
Cc1ccc(/C(=N/NC(N)=S)c2ccccc2)cc1	> 30	> 30	> 30	> 30
Cc1ccc(/C(=N/NC(N)=S)c2cccc(C(F)(F)F)c2)cc1	> 30	> 30	> 30	30
N#Cc1nc(NCc2ccc(-c3ccco3)cc2)c2ncn(CCCO)c2n1	13	12	18	12
Cc1cccc(/C(=N/NC(N)=S)c2cccc(F)c2)c1	> 30	> 30	> 30	> 30
N#Cc1nc(NCc2ccc(-c3cccnc3)cc2)c2ncn(CCCO)c2n1	> 30	> 30	> 30	> 30
Cc1ccc(/C(=N/NC(N)=S)c2cc(Cl)cc(Cl)c2)cc1	> 30	> 30	> 30	30
COC(=O)c1cccc(-c2cccc(CNc3nc(C#N)nc4c3ncn4CCCO)c2)c1	> 30	> 30	> 30	> 30
NC(=S)N/N=C(\c1cc(Cl)cc(Cl)c1)c1cccs1	> 30	> 30	> 30	30
CC(=O)Nc1cccc(CNc2nc(C#N)nc3c2ncn3CCCO)c1	15	11	15	6
C=Cc1cccc(-c2cccc(CNc3nc(C#N)nc4c3ncn4CCCO)c2)c1	> 30	> 30	> 30	> 30
C=Cc1ccc(-c2cccc(CNc3nc(C#N)nc4c3ncn4CCCO)c2)cc1	> 30	> 30	> 30	> 30
N#Cc1nc(NCc2cccc(-c3ccc4ccccc4c3)c2)c2ncn(CCCO)c2n1	> 30	> 30	> 30	30
N#Cc1nc(NCc2cccc(-c3ccco3)c2)c2ncn(CCCO)c2n1	> 30	> 30	> 30	> 30
N#Cc1nc(NCc2cccc(-c3ccsc3)c2)c2ncn(CCCO)c2n1	> 30	> 30	> 30	> 30
N#Cc1nc(NCc2cccc(-c3ccoc3)c2)c2ncn(CCCO)c2n1	> 30	> 30	> 30	> 30
CC(C)Oc1c(Br)cccc1-c1cccc(CNc2nc(C#N)nc3c2ncn3CCCO)c1	> 30	> 30	30	30
COc1cc(OC)c(-c2cccc(CNc3nc(C#N)nc4c3ncn4CCCO)c2)cn1	> 30	> 30	> 30	> 30
N#Cc1nc(NCc2ccc(-c3cccc(Cl)c3)cc2)c2ncn(CCCO)c2n1	20	18	20	14
N#Cc1nc(NCc2ccc(Cl)c(Cl)c2)c2c(n1)N(Cc1cccc(C(F)(F)F)c1)CN2	30	24	27	30
COc1ccc(-c2cccc(CNc3nc(C#N)nc4c3ncn4CCCO)c2)cc1	> 30	> 30	> 30	> 30
N#Cc1nc(NCc2cccc(-c3ccccc3)c2)c2ncn(CCCO)c2n1	> 30	> 30	> 30	30
N#Cc1nc(NCc2cccc(-c3cccnc3)c2)c2ncn(CCCO)c2n1	> 30	> 30	> 30	> 30
N#Cc1nc(NCc2cccc(-c3cccs3)c2)c2ncn(CCCO)c2n1	> 30	> 30	> 30	> 30
N#Cc1nc(NCc2cccc(-c3cc4ccccc4n3S(=O)(=O)c3ccccc3)c2)c2ncn(CCCO)c2n1	> 30	30	> 30	30
N#Cc1nc(NCc2cccc(-c3cn(S(=O)(=O)c4ccccc4)c4ccccc34)c2)c2ncn(CCCO)c2n1	> 30	30	> 30	30
N#Cc1nc(NCc2cccc(-c3ccc4cc[nH]c4c3)c2)c2ncn(CCCO)c2n1	> 30	> 30	> 30	> 30
